# Source: US20070154965A1, “Chlorotoxin-labeled nanoparticle compositions and methods for targeting primary brain tumors” (priority 2005, published 2007)
# Test system: 9L cells
# Experiment: Transwell migration (matrigel invasion) assay
# Assay type: cell-based, rat
# Conditions: 4 μg/ml free chlorotoxin, 24 hrs
# Description: Transwell migration assay. The assay was performed by a method reported previously to assess the bioactivity of chlorotoxin. See Deshane et al., J. Biol. Chem. 2003, 278:4135-4144, expressly incorporated herein in its entirety. Prior to the experiment, matrigel invasion chamber inserts (BD Biosciences, Bedford, Mass.) of 8 μm pore size were rehydrated. The lower surfaces of the chamber inserts were immersed in 5 μg/ml solution of vitronectin for 8 hours. 9L cells were then plated at a density of 2.5×10^5 cells per chamber. Cells were treated with solutions of 4 μg/ml of chlorotoxin, and 10 μg Fe/ml of NPCs, respectively. The chambers were then incubated in a 37° C. humidified incubator maintained at 5% CO2 for 24 hrs. The cells on the upper inserts were scrubbed off, and the invaded cells were fixed and stained with Diff-Quik stain kit (IMEB INC., Chicago, Ill.). The filters were then detached from the inserts and mounted on glass slides using immersion oil and imaged on a Nikon E800 upright microscope. Relative inhibition of cell invasion was determined through reduction of migrating cells in presence of chlorotoxin and NPCs. Triplicates of each sample were prepared and cell counts were obtained from five random spots on each filter. The data was then averaged and presented as a relative number of invasive cells per treatment.
substance,measurement,value
chlorotoxin,inhibition of cell invasion,approximately 88%
